Experimental data as given in patent US20240009174A1, “METHODS FOR DISRUPTING MITOCHONDRIAL UNFOLDED PROTEIN RESPONSE” (Health Research, Inc., priority 2020, published 2024).

Columns and labels:
Format in all cases: cell-based
c-Myc = biological target: T1, c-Myc (Homo sapiens, UniProt P01106); assay: HSP60 and ClpP expression after c-Myc inhibitor; conditions: LNCaP and PC-3 cells, 50 μM, 24 hrs
T1 construct: endogenous in cells; host or cells: LNCaP and PC-3 cells
Source text: FIG. 4. HSP60 regulate ClpP expression but not vice versa. (A) HSP60 and ClpP stable knockdown LNCaP and PC-3 cells were generated using shRNA and analyzed for HSP60 and ClpP expression levels. Actin serves as loading control. (B-C) HSP60 and ClpP knockdown LNCaP and PC-3 cells were crosslinked with EGS, lysed and protein samples run on an SDS-PAGE gel as described in material and methods. Membranes were probed with either ClpP or HSP60 antibody to analyze the oligomerization status of these proteins. (D) Enzymatic activity of ClpP was assayed from mitochondrial pellets isolated from HSP60 knockdown PC-3 cells and DU145 Hsp60^+/− cells. (E) HSP60 was overexpressed in PC-3 cells and analyzed for ClpP expression. Actin serves as loading control. (F) ClpP was overexpressed in LNCaP, DU145 and PC-3 cells and analyzed for HSP60 expression. Actin serves as loading control. […] Whole cell lysates were prepared and analyzed for HSP60 and ClpP expression. […] (H) c-Myc binding efficiency with ClpP promoter in HSP60 knockdown LNCaP and PC-3 cells was determined using chromatin immunoprecipitation (ChIP) assay using specific primers. […]
HSP60 regulates expression of ClpP via c-Myc but not vice versa. […] To confirm that c-Myc is a regulator for ClpP expression, PCa cells were treated with c-Myc pharmacological inhibitor 10058-F4 and analyzed ClpP expression levels. […]

LNCaP and PC-3 cells = assay: Rescue of DCEM1-induced cell death by ROS quenchers (MTT cell viability)
Description: FIG. 6. Pharmacological inhibition of HSP60-ClpP interaction induces UPR^mt and PCa cell death. (A) Docking of DCEM1 into apical domain of HSP60. (B) LNCaP and PC-3 cells were treated with DCEM1 for 24 hours and HSP60-ClpP interaction was analyzed by co-immunoprecipitation assay. (C) LNCaP and PC-3 cells were treated with DCEM1 for 24 hours and mitoROS levels were analyzed by flow cytometry using mitoSOX dye. (D) LNCaP and PC-3 cells were treated with DCEM1 for 24 hours and poly-Ub protein levels were analyzed by western blotting. (E) LNCaP and PC-3 cells were treated with DCEM1 for 24 and 48 hours and apoptotic cell populations were analyzed by flow cytometry using Annexin V FITC/PI method as explained in materials and methods. In (E) top panel, the bars in each series from left to right are control, 5, 10, and 20, and in (E) bottom panel, the bars in each series from left to right are DMSO, 5, 10, and 20. (F) LNCaP and PC-3 cells were treated with DCEM1 for 24 and 48 hours and lysates were prepared and analyzed for DEVDase activity using specific peptide substrate. […] (G) LNCaP and PC-3 cells were pre-treated with SKQ1 followed by DCEM1 treatment and analyzed for cell viability by MTT assay. (H) LNCaP and PC-3 cells were treated with either DCEM1 or H2O2 (200 μM) for 24 hours and total DNA were isolated and analyzed for mtDNA damage as described in materials and methods. […]

HSP60-silenced cells = assay: Cell death in HSP60-silenced cells versus mock cells
Source text: Although cancer cells prefer aerobic glycolysis for energy, continual production of ATP via OXPHOS system is still required for rapid cancer cell survival and growth. ClpP along with LonP1 degrades Complex I during stress to alleviate mtROS, thus promoting cell survival. HSP60-silencing or inhibition of HSP60-ClpP interaction by DCEM1 contribute to mtROS buildup and mitotoxicity due to inhibition of ClpP function or ClpP-deficiency because ClpP is no longer available/functional in alleviating mtROS production and degrading unfolded protein in mitochondria leading to collapse of mitochondrial function and homeostasis. […] Mitochondrial proteases such as ClpP trigger mitochondria-to-nuclear signaling pathway and UPR^mt activation. Inhibition of ClpP expression and function by HSP60-silencing or HSP60 inhibitor such as DCEM1 may abolish mito-nuclear crosstalk leading to inhibition of retrograde signaling. Inhibition of HSP60 renders mitochondria in a fragile and dysfunctional state leading to enhanced apoptosis and blockage of cellular proliferation. Therefore, chemotherapeutic agents along with HSP60 inhibition may provide a novel combination for therapeutic benefits in PCa.

[1] = tested on: mitochondrial chaperonin activity in PCa cells; assay: Mitochondrial Chaperonin Activity Assay (MiCAA); conditions: 24 h
Description: FIG. 10. Mitochondrial Chaperonin Activity Assay (MiCAA). PCa cells were treated with either DCEM1 (A) or ETB or Mizoribine (B) for 24 h and mitochondrial (Mito) chaperonin activity was analyzed as described in material and methods. In another experiment, PCa cells were transfected with siRNA to target HSP60 mRNA and mitochondrial chaperonin activity was analyzed (C). In (A), the bars in each series from left to right are DMSO and DCEM1. In (B), the bars in each series from left to right are DMSO, ETB, and MZR. In (C), the bars in each series from left to right are siMock, siHSP60-1, and siHSP60-2.
Since HSP60 chaperonin system is crucial for maintaining mitochondrial homeostasis in normal cells, a novel method, Mitochondrial Chaperonin Activity Assay (MiCAA), was developed to analyze chaperonin activity in live cells using flow cytometry to evaluate whether DCEM1 modulates mitochondrial chaperonin activity.

T1 sequence (P01106 whole entry): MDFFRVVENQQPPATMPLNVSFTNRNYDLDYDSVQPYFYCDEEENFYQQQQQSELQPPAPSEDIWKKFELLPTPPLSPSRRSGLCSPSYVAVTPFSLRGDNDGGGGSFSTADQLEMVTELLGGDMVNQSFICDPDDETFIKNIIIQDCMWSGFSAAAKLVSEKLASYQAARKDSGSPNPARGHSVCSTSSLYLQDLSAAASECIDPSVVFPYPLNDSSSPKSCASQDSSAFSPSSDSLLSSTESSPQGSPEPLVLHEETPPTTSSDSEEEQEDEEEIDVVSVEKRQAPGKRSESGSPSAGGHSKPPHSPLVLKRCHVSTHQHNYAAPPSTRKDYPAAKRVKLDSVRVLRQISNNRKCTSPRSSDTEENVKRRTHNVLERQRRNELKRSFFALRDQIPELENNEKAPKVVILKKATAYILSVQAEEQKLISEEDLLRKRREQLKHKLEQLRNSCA

For CCc1ccc(/C=C2/SC(=S)NC2=O)cc1 [10058-F4], the ClpP expression (c-Myc) was “downregulate ClpP expression” and the HSP60 expression (c-Myc) was “without affecting HSP60 expression”.
In the case of CC(=O)N[C@@H](CS)C(=O)O [NAC], the “effect of NAC pre-treatment on DCEM1-induced cell death” value (LNCaP and PC-3 cells; PCa cells, data not shown) is reported as “antagonizes DCEM1-induced cell death”.
CC1=C(C)C(=O)C(CCCCCCCCCC[P+](c2ccccc2)(c2ccccc2)c2ccccc2)=CC1=O [SKQ1] was tested, and the “effect of mitoROS quencher pre-treatment on DCEM1-induced cell death” value (LNCaP and PC-3 cells; LNCaP and PC-3 cells pre-treated with SKQ1 followed by DCEM1, MTT assay) was “inhibited DCEM1—induced cell death”.
For CC(=O)O[C@@]12CO[C@@H]1C[C@H](O)[C@@]1(C)C(=O)[C@H](O)C3=C(C)[C@@H](OC(=O)[C@H](O)[C@@H](NC(=O)OC(C)(C)C)c4ccccc4)C[C@@](O)([C@@H](OC(=O)c4ccccc4)[C@H]21)C3(C)C [docetaxel], the “cell death induction in HSP60-silenced cells compared to mock cells” value (HSP60-silenced cells) was “more efficacious”.
For NC(=O)c1ncn([C@@H]2O[C@H](CO)[C@@H](O)[C@H]2O)c1O [mizoribine, reference compound], the mitochondrial chaperonin activity [1] was “significantly inhibited”.
